Columns and labels:
[1] = 60 min microsomal stability assay (UPLC-MS/MS), cynomolgus monkey liver microsomes; format: in vitro ADME; settings: 50 µM
Description: (§1) Rat, beagle (Gibco, Biocenter, Szeged, Hungary), and cynomolgus monkey (Primacyt, Schwerin, Germany) liver microsomes were exposed to inhibitors MI-432, MI-463, MI-482, or MI-1900 at 50 µM for 60 min. The final microsomal protein concentration in the suspension was 0.6 mg/mL in each case. The reaction buffer (100 mM phosphate buffer pH 7.4) also contained 1 mM nicotinamide adenine dinucleotide phosphate (NADPH), 5 mM MgCl2, 10 mM glucose-6-phosphate (G6P), and 2 IU/mL glucose-6-phosphate dehydrogenase (G6PD). The reaction was terminated by the addition of ice-cold acetonitrile (ACN) with the ratio of sample ACN volume = 1:2. The precipitated protein was removed by centrifugation at 10,000× g for 10 min, and the supernatants were used for subsequent analyses.
(§2) The determination of all analytes was carried out using an UPLC/MS/MS system, which consisted of an HPLC apparatus (SCIEX ExionLC^TM UPLC, Framigham, MA, USA) and a SCIEX Qtrap 4500 triple-quadrupole mass spectrometer (Framigham, MA, USA) equipped with a SCIEX Turbo V electrospray ionization source. The HPLC columns used were LiChrospher RP Select B (125 × 4.0 mm, 5.0 μm, C8 stationary phase). Next, 0.1% trifluoroacetic acid in ultra-purified water (A) and acetonitrile (B) were used as mobile phases for chromatographic separations applying a gradient elution. The HPLC gradient program was the following: between 0 and 10 min, a ratio of 70% A and 30% B; from 10 to 20 min, linearly increasing to a ratio of 50% A and 50% B; from 20 to 21 min, maintained at a ratio of 50% A and 50% B; from 21 to 22 min, linearly decreasing back to a ratio of 70% A and 30% B; and between 22 min and 30 min, maintained at a ratio of 70% A and 30% B. The run time was 30 min, the column temperature was adjusted to 35 °C, and the flow rate was 1 mL/min.

[2] = biological target: T1, CYP1A2 (Macaca fascicularis, UniProt O77809); settings: 2 h, 50 µM
T1 sequence (O77809 1-516): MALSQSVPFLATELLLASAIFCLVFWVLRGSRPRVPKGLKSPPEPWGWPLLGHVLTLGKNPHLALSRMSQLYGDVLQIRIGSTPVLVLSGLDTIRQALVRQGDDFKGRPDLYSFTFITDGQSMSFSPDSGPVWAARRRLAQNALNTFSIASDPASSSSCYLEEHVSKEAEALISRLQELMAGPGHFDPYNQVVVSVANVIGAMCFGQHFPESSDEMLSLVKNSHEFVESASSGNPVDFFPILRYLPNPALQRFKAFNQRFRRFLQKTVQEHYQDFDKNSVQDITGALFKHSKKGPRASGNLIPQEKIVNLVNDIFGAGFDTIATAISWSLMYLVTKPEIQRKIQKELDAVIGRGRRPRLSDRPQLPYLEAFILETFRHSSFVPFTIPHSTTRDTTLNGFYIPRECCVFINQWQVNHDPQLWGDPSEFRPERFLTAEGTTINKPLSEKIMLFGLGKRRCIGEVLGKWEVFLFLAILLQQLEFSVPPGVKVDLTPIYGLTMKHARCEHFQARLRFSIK
Description: For the measurements of CYP1A2 activities, hepatocytes were grown on 24-well collagen-coated membrane inserts (Costar Transwell-PTFE membrane, 6.5 mm, pore size: 0.4 µm, Merck, Darmstadt, Germany). […] The determination of the CYP1A2 activities were performed using the P450-Glo CYP450 Assay (Promega, Madison, WI, USA) according to the manufacturer’s instructions.

[3] = system: SARS-CoV-2; set-up: method as in PMID 32703818; settings: infected human airway epithelial Calu 3 cells, dose-dependent; cited from earlier work
[4] = 60 min microsomal stability assay (UPLC-MS/MS), beagle liver microsomes; format: in vitro ADME; settings: 50 µM
Description: as §1, §2

[5] = biological target: T1, CYP1A2; experiment: CYP1A2 fluorometric activity assay in cynomolgus monkey hepatic microsomes; format: in vitro ADME; set-up: cynomolgus monkey microsomal suspension (Primacyt, Schwerin, Germany, protein concentration: 5 mg/mL); tissue Primacyt, Schwerin, Germany; host or cells: liver (hepatic microsomes)
Description: The Biovision CYP assay (BioVision, Inc., Kampenhout, Belgium) utilizes a non-fluorescent CYP1A2 substrate capable of transforming into a highly fluorescent metabolite, which can be detected in the visible range. α-naphthoflavone was used as a CYP1A2 reference inhibitor at 6 µM during the experiments. Rat (Sprague–Dawley) and beagle (Gibco, Biocenter, Szeged, Hungary, protein concentration: 20 mg/mL) hepatic microsomal preparations were prepared separately by mixing 25 µL of the obtained rat or beagle microsomal suspension with 2425 µL assay buffer and with 50 µL NADPH generating system (100×). In the case of the cynomolgus monkey microsomal suspension (Primacyt, Schwerin, Germany, protein concentration: 5 mg/mL), the following volumes were applied: in addition to 100 µL of monkey microsomal suspension, the amount of assay buffer and the NADPH generating system were adjusted in order to ensure the original ratios of these components to reach a final volume of 2500 µL. Rat, beagle, and cynomolgus monkey microsomal suspension aliquots (50 µL) were treated with the protease inhibitor 20 µL, 0–1000 µM), the reference compound α-naphthoflavone (20 µL, 30 µM), or the assay buffer without test compounds (20 µL, background control) for 15 min at 37 °C. After incubation, 30 µL of the appropriate CYP1A2 substrate/NADP+ mixture was added to each well, yielding a final reaction volume of 100 µL/well. The protein contents of the obtained microsomes were analysed using bicinchoninic acid protein assay kit (Pierce BCA kit, Thermo Fisher Scientific, Waltham, MA, USA). […] The fluorescence intensities were measured with a fluorometer (Victor X2 2030, Perkin Elmer, Waltham, MA, USA), using λEx/Em = 406/468 nm.

[6] = 60 min microsomal stability assay (UPLC-MS/MS), rat liver microsomes; format: in vitro ADME; settings: 50 µM
Description: as §1, §2

Row | SMILES | depletion percentage of the parent compound ([1]; cynomolgus monkey, pH 7.4) | CYP1A2 activity in cynomolgus monkey hepatocytes [2] | SARS-CoV-2 titers [3] | depletion percentage of the parent compound ([4]; beagle, dog, pH 7.4) | IC50 [5] | CYP1A2 in the cynomolgus monkey microsomal model ([5]; microsomes) | depletion percentage of the parent compound ([6]; Sprague-Dawley, rat, pH 7.4) | depletion percentage of the parent compound ([1]; monkey microsomes, 0.6 mg/mL protein, mean ± SD (n = 3)) | depletion percentage of the parent compound ([4]; beagle microsomes, 0.6 mg/mL protein, mean ± SD (n = 3)) | CYP1A2 in the cynomolgus monkey microsomal model ([5]; inhibitors at 50 µM) | depletion percentage of the parent compound ([6]; rat microsomes, 0.6 mg/mL protein, mean ± SD (n = 3))
1 | N=C(N)c1cccc(C[C@H](NS(=O)(=O)c2cccc(-c3ccc(Cl)cc3Cl)c2)C(=O)N2CCC(CCN)CC2)c1 [MI-432] | 19.6 ± 5.8% | significantly decrease the activity of CYP1A2 | reduced | 23.8 ± 7% | 1.3 ± 0.14 µM | inhibited | 28 ± 3.1% | – | – | – | –
2 | COc1ccc(-c2cccc(S(=O)(=O)N[C@@H](Cc3cccc(C(=N)N)c3)C(=O)N3CCN(C(=O)NC4CCCCC4)CC3)c2)c(OC)c1 [MI-1900] | – | significantly decrease the activity of CYP1A2 | reduced | – | 1.1 ± 0.8 µM | – | – | 26.7 ± 10.8% | 23.7 ± 11.1% | inhibited | 30.7 ± 11.7%
